# In PubChem BioAssay AID1845198 (Molecular Pharmacology Branch, DTP, NCI, 2023):
# System: 425362-245-T-J1 tumor spheroids, viability % test/control
# Test: Anticancer human tumor 425362-245-T-J1 patient-derived melanoma cell line growth inhibition
# Settings: spheroids with HUVEC and MSC; for IC50: curve of first compound; for viability, T/C: stronger effect = lower value
# How it was run: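 Complex tumor spheroids combined malignant cells with endothelial cells and mesenchymal stem cells. DNA-damaging drugs and DNA repair inhibitors were tested alone and in combination, at half-log dilutions down from clinical Cmax (top 10 microM if Cmax unknown), 0.25% DMSO final.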
# [1] = second compound 0.003 µM, first compound 0.0316 µM
# [2] = second compound 0.003 µM, first compound 0.1 µM
# [3] = second compound 0.003 µM, first compound 0.316 µM
# [4] = second compound 0.003 µM, first compound 1 µM
# [5] = second compound 0.003 µM, first compound 3.16 µM
# [6] = second compound 0.003 µM, first compound 10 µM
# [7] = second compound 0.00949 µM, first compound 0.0316 µM
# [8] = second compound 0.00949 µM, first compound 0.1 µM
# [9] = second compound 0.00949 µM, first compound 0.316 µM
# [10] = second compound 0.00949 µM, first compound 1 µM
# [11] = second compound 0.00949 µM, first compound 3.16 µM
# [12] = second compound 0.00949 µM, first compound 10 µM
# [13] = second compound 0.03 µM, first compound 0.0316 µM
# [14] = second compound 0.03 µM, first compound 0.1 µM
# [15] = second compound 0.03 µM, first compound 0.316 µM
# [16] = second compound 0.03 µM, first compound 1 µM
# [17] = second compound 0.03 µM, first compound 3.16 µM
# [18] = second compound 0.03 µM, first compound 10 µM
# [19] = second compound 0.0949 µM, first compound 0.0316 µM
# [20] = second compound 0.0949 µM, first compound 0.1 µM
# [21] = second compound 0.0949 µM, first compound 0.316 µM
# [22] = second compound 0.0949 µM, first compound 1 µM
# [23] = second compound 0.0949 µM, first compound 3.16 µM
# [24] = second compound 0.0949 µM, first compound 10 µM
# [25] = second compound 0.3 µM, first compound 0.0316 µM
# [26] = second compound 0.3 µM, first compound 0.1 µM
# [27] = second compound 0.3 µM, first compound 0.316 µM
# [28] = second compound 0.3 µM, first compound 1 µM
# [29] = second compound 0.3 µM, first compound 3.16 µM
# [30] = second compound 0.3 µM, first compound 10 µM
# 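Note: spheroids exposed to agents for 7 days.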
compound,measurement,setting,value
Cn1ncnc1[C@H]1c2n[nH]c(=O)c3cc(F)cc(c23)N[C@@H]1c1ccc(F)cc1 + Cn1nnc2c(C(N)=O)ncn2c1=O,IC50,second compound 1 µM,0.0245 µM
same,IC50,second compound 3.16 µM,0.0135 µM
same,IC50,second compound 10 µM,0.0126 µM
same,IC50,second compound 31.6 µM,< 0.00949 µM
same,IC50,second compound 100 µM,< 0.00949 µM
same,"viability, T/C","second compound 1 µM, first compound 0.00949 µM",59.9%
same,"viability, T/C","second compound 1 µM, first compound 0.03 µM",48.6%
same,"viability, T/C","second compound 1 µM, first compound 0.0949 µM",27%
same,"viability, T/C","second compound 1 µM, first compound 0.3 µM",12.1%
same,"viability, T/C","second compound 1 µM, first compound 0.949 µM",9.08%
same,"viability, T/C","second compound 1 µM, first compound 3 µM",2.19%
same,"viability, T/C","second compound 3.16 µM, first compound 0.00949 µM",54.8%
same,"viability, T/C","second compound 3.16 µM, first compound 0.03 µM",40.1%
same,"viability, T/C","second compound 3.16 µM, first compound 0.0949 µM",19.1%
same,"viability, T/C","second compound 3.16 µM, first compound 0.3 µM",14.3%
same,"viability, T/C","second compound 3.16 µM, first compound 0.949 µM",7.67%
same,"viability, T/C","second compound 3.16 µM, first compound 3 µM",2.76%
same,"viability, T/C","second compound 10 µM, first compound 0.00949 µM",57.8%
same,"viability, T/C","second compound 10 µM, first compound 0.03 µM",26.8%
same,"viability, T/C","second compound 10 µM, first compound 0.0949 µM",15.8%
same,"viability, T/C","second compound 10 µM, first compound 0.3 µM",13.2%
same,"viability, T/C","second compound 10 µM, first compound 0.949 µM",7%
same,"viability, T/C","second compound 10 µM, first compound 3 µM",3.32%
same,"viability, T/C","second compound 31.6 µM, first compound 0.00949 µM",27.6%
same,"viability, T/C","second compound 31.6 µM, first compound 0.03 µM",12%
same,"viability, T/C","second compound 31.6 µM, first compound 0.0949 µM",9.07%
same,"viability, T/C","second compound 31.6 µM, first compound 0.3 µM",7.7%
same,"viability, T/C","second compound 31.6 µM, first compound 0.949 µM",5.14%
same,"viability, T/C","second compound 31.6 µM, first compound 3 µM",2.14%
same,"viability, T/C","second compound 100 µM, first compound 0.00949 µM",7.96%
same,"viability, T/C","second compound 100 µM, first compound 0.03 µM",7.44%
same,"viability, T/C","second compound 100 µM, first compound 0.0949 µM",5.25%
same,"viability, T/C","second compound 100 µM, first compound 0.3 µM",4.75%
same,"viability, T/C","second compound 100 µM, first compound 0.949 µM",4.31%
same,"viability, T/C","second compound 100 µM, first compound 3 µM",2.46%
COc1ccc([C@@H](O)c2cc(-c3ncnc4cc(N5CCOCC5)ccc34)c(F)cc2Cl)nn1 + CC[C@@]1(O)C(=O)OCc2c1cc1n(c2=O)Cc2cc3c(CN(C)C)c(O)ccc3nc2-1,IC50,second compound 0.003 µM,1.69 µM
same,IC50,second compound 0.00949 µM,1.11 µM
same,IC50,second compound 0.03 µM,< 0.0316 µM
same,IC50,second compound 0.0949 µM,< 0.0316 µM
same,IC50,second compound 0.3 µM,< 0.0316 µM
same,"viability, T/C",[1],103%
same,"viability, T/C",[2],103%
same,"viability, T/C",[3],72.1%
same,"viability, T/C",[4],60.2%
same,"viability, T/C",[5],40.6%
same,"viability, T/C",[6],17%
same,"viability, T/C",[7],89.7%
same,"viability, T/C",[8],78.7%
same,"viability, T/C",[9],72.4%
same,"viability, T/C",[10],47.9%
same,"viability, T/C",[11],35.1%
same,"viability, T/C",[12],14.9%
same,"viability, T/C",[13],45.5%
same,"viability, T/C",[14],45.6%
same,"viability, T/C",[15],37.8%
same,"viability, T/C",[16],24.5%
same,"viability, T/C",[17],15.1%
same,"viability, T/C",[18],11.2%
same,"viability, T/C",[19],8.69%
same,"viability, T/C",[20],6.08%
same,"viability, T/C",[21],5.64%
same,"viability, T/C",[22],5.51%
same,"viability, T/C",[23],3.85%
same,"viability, T/C",[24],4.39%
same,"viability, T/C",[25],1.88%
same,"viability, T/C",[26],1.38%
same,"viability, T/C",[27],1.37%
same,"viability, T/C",[28],1.12%
same,"viability, T/C",[29],0.65%
same,"viability, T/C",[30],0.57%
Cc1cc(C)c(CNC(=O)c2cc(-c3ccc(CN4CCOCC4)cc3)cc3c2cnn3C2CCCC2)c(=O)[nH]1 + CC[C@@]1(O)C(=O)OCc2c1cc1n(c2=O)Cc2cc3c(CN(C)C)c(O)ccc3nc2-1,IC50,second compound 0.003 µM,3.21 µM
same,IC50,second compound 0.00949 µM,1.96 µM
same,IC50,second compound 0.03 µM,< 0.0316 µM
same,IC50,second compound 0.0949 µM,< 0.0316 µM
same,IC50,second compound 0.3 µM,< 0.0316 µM
same,"viability, T/C",[1],103%
same,"viability, T/C",[2],81.8%
same,"viability, T/C",[3],84%
same,"viability, T/C",[4],72.9%
same,"viability, T/C",[5],53.1%
same,"viability, T/C",[6],10.1%
same,"viability, T/C",[7],81.9%
same,"viability, T/C",[8],75%
same,"viability, T/C",[9],79.8%
same,"viability, T/C",[10],54.1%
same,"viability, T/C",[11],45.2%
same,"viability, T/C",[12],16.8%
same,"viability, T/C",[13],32.9%
same,"viability, T/C",[14],37.2%
same,"viability, T/C",[15],35.6%
same,"viability, T/C",[16],33.1%
same,"viability, T/C",[17],11.7%
same,"viability, T/C",[18],7.5%
same,"viability, T/C",[19],6%
same,"viability, T/C",[20],6.44%
same,"viability, T/C",[21],4.34%
same,"viability, T/C",[22],5.8%
same,"viability, T/C",[23],5.25%
same,"viability, T/C",[24],6.46%
same,"viability, T/C",[25],1.9%
same,"viability, T/C",[26],2.19%
same,"viability, T/C",[27],2.16%
same,"viability, T/C",[28],2.06%
same,"viability, T/C",[29],2.3%
same,"viability, T/C",[30],2.37%
